According to patent US20240293551A1, “USE OF ST-TYPE LIPID COMPOUNDS IN PREPARATION OF NUCLEIC ACID DELIVERY REAGENT AND RELATED PRODUCT” (INSTITUTE OF BASIC MEDICAL SCIENCES CHINESE ACADEMY OF …, priority 2021, published 2024):

System: PGY-sRNA-26
Experiment: In vivo delivery study of lipid-nucleic acid mixture (oral gavage, RT-qPCR of PGY-sRNA-26 in tissues)
Set-up: species or system mouse
Conditions: for delivery efficacy over each tissue and blood tested (broad-spectrum delivery): all tissues and blood tested; for oral delivery of single-stranded sRNA nucleic acids into mouse intestinal tissue: intestine
Procedure, shortened: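 C57BL/6 male mice (~6 weeks, 20-24 g), fasted 12 h, were gavaged with 10 nmol 3′-methylated PGY-sRNA-26 mixed with 100 μg lipid (heated 90° C. 15 min), versus saline or free sRNA (n=4 each). After 12 h, blood and tissues were Trizol-extracted; sRNA quantified by stem-loop RT-qPCR relative to U6.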

[1] = C57BL/6 mice, gavage, 100 μg lipid: 10 nmol PGY-sRNA-26, 12 hours
[2] = C57BL/6 mice, gavage, 100 μg lipid: 10 nmol PGY-sRNA-26, 12 hours, brain

C[C@H](CCC(=O)NCC(=O)O)[C@H]1CC[C@H]2[C@@H]3[C@H](O)C[C@@H]4C[C@H](O)CC[C@]4(C)[C@H]3C[C@H](O)[C@]12C [Lipid 553]
delivery efficacy over each tissue and blood tested (broad-spectrum delivery) [1]: exhibited the best delivery efficacy | oral delivery of single-stranded sRNA nucleic acids into mouse blood [1]: can effectively orally deliver | oral delivery of single-stranded sRNA nucleic acids into mouse brain tissue [2]: can effectively orally deliver | oral delivery of single-stranded sRNA nucleic acids into mouse femur [1]: can effectively orally deliver | oral delivery of single-stranded sRNA nucleic acids into mouse heart tissue [1]: can effectively orally deliver | oral delivery of single-stranded sRNA nucleic acids into mouse intestinal tissue [1]: can effectively orally deliver | oral delivery of single-stranded sRNA nucleic acids into mouse kidney tissue [1]: can effectively orally deliver | oral delivery of single-stranded sRNA nucleic acids into mouse liver tissue [1]: can effectively orally deliver | oral delivery of single-stranded sRNA nucleic acids into mouse lung tissue [1]: can effectively orally deliver | oral delivery of single-stranded sRNA nucleic acids into mouse spleen tissue [1]: can effectively orally deliver | oral delivery of single-stranded sRNA nucleic acids into mouse stomach tissue [1]: can effectively orally deliver

CC(=O)OCC(=O)[C@@]1(O)CC[C@H]2[C@@H]3CCC4=CC(=O)CC[C@]4(C)[C@H]3C(=O)C[C@@]21C [Lipid 585]
oral delivery of single-stranded sRNA nucleic acids into mouse blood [1]: can effectively orally deliver | oral delivery of single-stranded sRNA nucleic acids into mouse brain tissue [2]: can effectively orally deliver | oral delivery of single-stranded sRNA nucleic acids into mouse femur [1]: can effectively orally deliver | oral delivery of single-stranded sRNA nucleic acids into mouse heart tissue [1]: can effectively orally deliver | oral delivery of single-stranded sRNA nucleic acids into mouse intestinal tissue [1]: can effectively orally deliver | oral delivery of single-stranded sRNA nucleic acids into mouse kidney tissue [1]: can effectively orally deliver | oral delivery of single-stranded sRNA nucleic acids into mouse liver tissue [1]: can effectively orally deliver | oral delivery of single-stranded sRNA nucleic acids into mouse lung tissue [1]: can effectively orally deliver | oral delivery of single-stranded sRNA nucleic acids into mouse spleen tissue [1]: can effectively orally deliver | oral delivery of single-stranded sRNA nucleic acids into mouse stomach tissue [1]: can effectively orally deliver

CC(=O)[C@@]1(O)CC[C@H]2[C@@H]3C[C@H](C)C4=CC(=O)CC[C@]4(C)[C@H]3CC[C@@]21C [Lipid 557]
delivery efficacy over each tissue and blood tested (broad-spectrum delivery) [1]: exhibited the best delivery efficacy | oral delivery of single-stranded sRNA nucleic acids into mouse blood [1]: can effectively orally deliver | oral delivery of single-stranded sRNA nucleic acids into mouse femur [1]: can effectively orally deliver | oral delivery of single-stranded sRNA nucleic acids into mouse heart tissue [1]: can effectively orally deliver | oral delivery of single-stranded sRNA nucleic acids into mouse intestinal tissue [1]: can effectively orally deliver | oral delivery of single-stranded sRNA nucleic acids into mouse kidney tissue [1]: can effectively orally deliver | oral delivery of single-stranded sRNA nucleic acids into mouse liver tissue [1]: can effectively orally deliver | oral delivery of single-stranded sRNA nucleic acids into mouse lung tissue [1]: can effectively orally deliver | oral delivery of single-stranded sRNA nucleic acids into mouse spleen tissue [1]: can effectively orally deliver | oral delivery of single-stranded sRNA nucleic acids into mouse stomach tissue [1]: can effectively orally deliver | oral delivery of single-stranded sRNA nucleic acids into mouse brain tissue (mouse, in vivo, po): can effectively orally deliver

C[C@]12CCC(=O)C=C1CC[C@@H]1[C@@H]2CC[C@]2(C)C(=O)CC[C@@H]12 [Lipid 587]
oral delivery of single-stranded sRNA nucleic acids into mouse blood [1]: can effectively orally deliver | oral delivery of single-stranded sRNA nucleic acids into mouse brain tissue [2]: can effectively orally deliver | oral delivery of single-stranded sRNA nucleic acids into mouse heart tissue [1]: can effectively orally deliver | oral delivery of single-stranded sRNA nucleic acids into mouse kidney tissue [1]: can effectively orally deliver | oral delivery of single-stranded sRNA nucleic acids into mouse spleen tissue [1]: can effectively orally deliver | oral delivery of single-stranded sRNA nucleic acids into mouse stomach tissue [1]: can effectively orally deliver

C[C@]12CC[C@H](O)C[C@H]1CC[C@@H]1[C@@H]2CC[C@]2(C)[C@@H](C3=CC(=O)OC3)CC[C@]12O [Lipid 559]
delivery efficacy over each tissue and blood tested (broad-spectrum delivery) [1]: exhibited the best delivery efficacy | oral delivery of single-stranded sRNA nucleic acids into mouse blood [1]: can effectively orally deliver | oral delivery of single-stranded sRNA nucleic acids into mouse brain tissue [2]: can effectively orally deliver | oral delivery of single-stranded sRNA nucleic acids into mouse femur [1]: can effectively orally deliver | oral delivery of single-stranded sRNA nucleic acids into mouse heart tissue [1]: can effectively orally deliver | oral delivery of single-stranded sRNA nucleic acids into mouse intestinal tissue [1]: can effectively orally deliver | oral delivery of single-stranded sRNA nucleic acids into mouse kidney tissue [1]: can effectively orally deliver | oral delivery of single-stranded sRNA nucleic acids into mouse liver tissue [1]: can effectively orally deliver | oral delivery of single-stranded sRNA nucleic acids into mouse lung tissue [1]: can effectively orally deliver | oral delivery of single-stranded sRNA nucleic acids into mouse spleen tissue [1]: can effectively orally deliver | oral delivery of single-stranded sRNA nucleic acids into mouse stomach tissue [1]: can effectively orally deliver

C[C@]12CC[C@H]3[C@@H](CCC4=CC(=O)CC[C@@H]43)[C@@H]1CC[C@@H]2O [Lipid 562]
oral delivery of single-stranded sRNA nucleic acids into mouse blood [1]: can effectively orally deliver | oral delivery of single-stranded sRNA nucleic acids into mouse brain tissue [2]: can effectively orally deliver | oral delivery of single-stranded sRNA nucleic acids into mouse femur [1]: can effectively orally deliver | oral delivery of single-stranded sRNA nucleic acids into mouse heart tissue [1]: can effectively orally deliver | oral delivery of single-stranded sRNA nucleic acids into mouse intestinal tissue [1]: can effectively orally deliver | oral delivery of single-stranded sRNA nucleic acids into mouse liver tissue [1]: can effectively orally deliver | oral delivery of single-stranded sRNA nucleic acids into mouse lung tissue [1]: can effectively orally deliver | oral delivery of single-stranded sRNA nucleic acids into mouse spleen tissue [1]: can effectively orally deliver | oral delivery of single-stranded sRNA nucleic acids into mouse stomach tissue [1]: can effectively orally deliver

C[C@H]1C[C@@H]2[C@H]([C@@H](O)C[C@@]3(C)[C@H]2CC[C@]3(O)C(=O)CO)[C@@]2(C)C=CC(=O)C=C12 [Lipid 547]
delivery efficacy over each tissue and blood tested (broad-spectrum delivery) [1]: exhibited the best delivery efficacy | oral delivery of single-stranded sRNA nucleic acids into mouse blood [1]: can effectively orally deliver | oral delivery of single-stranded sRNA nucleic acids into mouse femur [1]: can effectively orally deliver | oral delivery of single-stranded sRNA nucleic acids into mouse heart tissue [1]: can effectively orally deliver | oral delivery of single-stranded sRNA nucleic acids into mouse intestinal tissue [1]: can effectively orally deliver | oral delivery of single-stranded sRNA nucleic acids into mouse kidney tissue [1]: can effectively orally deliver | oral delivery of single-stranded sRNA nucleic acids into mouse liver tissue [1]: can effectively orally deliver | oral delivery of single-stranded sRNA nucleic acids into mouse lung tissue [1]: can effectively orally deliver | oral delivery of single-stranded sRNA nucleic acids into mouse spleen tissue [1]: can effectively orally deliver | oral delivery of single-stranded sRNA nucleic acids into mouse stomach tissue [1]: can effectively orally deliver

C[C@]12CC[C@H](O)C[C@@H]1CC[C@@H]1[C@@H]2CC[C@]2(C)[C@@H](O)CC[C@@H]12 [Lipid 548, 5α-androstanediol (3S,5S,8R,9S,10S,13S,14S,17S)-10,13-dimethyl-2,3,4,5,6,7,8,9,11,12,14,15,16,17-tetradecahydro-1H-cyclopenta[a]phenanthrene-3,17-diol]
delivery efficacy over each tissue and blood tested (broad-spectrum delivery) [1]: exhibited the best delivery efficacy | oral delivery of single-stranded sRNA nucleic acids into mouse blood [1]: can effectively orally deliver | oral delivery of single-stranded sRNA nucleic acids into mouse brain tissue [2]: can effectively orally deliver | oral delivery of single-stranded sRNA nucleic acids into mouse femur [1]: can effectively orally deliver | oral delivery of single-stranded sRNA nucleic acids into mouse heart tissue [1]: can effectively orally deliver | oral delivery of single-stranded sRNA nucleic acids into mouse intestinal tissue [1]: can effectively orally deliver | oral delivery of single-stranded sRNA nucleic acids into mouse kidney tissue [1]: can effectively orally deliver | oral delivery of single-stranded sRNA nucleic acids into mouse liver tissue [1]: can effectively orally deliver | oral delivery of single-stranded sRNA nucleic acids into mouse lung tissue [1]: can effectively orally deliver | oral delivery of single-stranded sRNA nucleic acids into mouse spleen tissue [1]: can effectively orally deliver | oral delivery of single-stranded sRNA nucleic acids into mouse stomach tissue [1]: can effectively orally deliver

C[C@]12CC[C@H]3[C@@H](CCC4=CC(=O)CC[C@@]43CO)[C@@H]1CCC2=O [Lipid 567, 19-hydroxy-androstane-4-ene-3,17-dione (8R,9S,10S,13S,14S)-10-(hydroxymethyl)-13-methyl-2,6,7,8,9,11,12,14,15,16-decahydro-1H-cyclopenta[a]phenanthrene-3,17-dione]
delivery efficacy over each tissue and blood tested (broad-spectrum delivery) [1]: exhibited the best delivery efficacy | oral delivery of single-stranded sRNA nucleic acids into mouse blood [1]: can effectively orally deliver | oral delivery of single-stranded sRNA nucleic acids into mouse brain tissue [2]: can effectively orally deliver | oral delivery of single-stranded sRNA nucleic acids into mouse femur [1]: can effectively orally deliver | oral delivery of single-stranded sRNA nucleic acids into mouse heart tissue [1]: can effectively orally deliver | oral delivery of single-stranded sRNA nucleic acids into mouse intestinal tissue [1]: can effectively orally deliver | oral delivery of single-stranded sRNA nucleic acids into mouse kidney tissue [1]: can effectively orally deliver | oral delivery of single-stranded sRNA nucleic acids into mouse liver tissue [1]: can effectively orally deliver | oral delivery of single-stranded sRNA nucleic acids into mouse lung tissue [1]: can effectively orally deliver | oral delivery of single-stranded sRNA nucleic acids into mouse spleen tissue [1]: can effectively orally deliver | oral delivery of single-stranded sRNA nucleic acids into mouse stomach tissue [1]: can effectively orally deliver
